Data reported in patent publication US8710065B2, “Tricyclic inhibitors of kinases” (AbbVie Inc., priority 2011, dated 2014).

The molecules below were run against T1, GST-tagged-Wee1 kinase (Homo sapiens, UniProt P30291) (assay: Wee1 time-resolved fluorescence equilibrium binding assay (displacement of Oregon Green-labeled ATP-competitive kinase probe)). Details: read-out: Wee-1 inhibition (Ki).
T1 construct: purchased Carnabio (Carna Biosciences) 05-177
Outline: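 Time-resolved fluorescence equilibrium binding with GST-Wee1, measuring displacement of a rapidly reversible Oregon Green-labelled ATP-competitive probe by competitive inhibitors; values reported as Ki.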

T1 sequence (P30291 whole entry): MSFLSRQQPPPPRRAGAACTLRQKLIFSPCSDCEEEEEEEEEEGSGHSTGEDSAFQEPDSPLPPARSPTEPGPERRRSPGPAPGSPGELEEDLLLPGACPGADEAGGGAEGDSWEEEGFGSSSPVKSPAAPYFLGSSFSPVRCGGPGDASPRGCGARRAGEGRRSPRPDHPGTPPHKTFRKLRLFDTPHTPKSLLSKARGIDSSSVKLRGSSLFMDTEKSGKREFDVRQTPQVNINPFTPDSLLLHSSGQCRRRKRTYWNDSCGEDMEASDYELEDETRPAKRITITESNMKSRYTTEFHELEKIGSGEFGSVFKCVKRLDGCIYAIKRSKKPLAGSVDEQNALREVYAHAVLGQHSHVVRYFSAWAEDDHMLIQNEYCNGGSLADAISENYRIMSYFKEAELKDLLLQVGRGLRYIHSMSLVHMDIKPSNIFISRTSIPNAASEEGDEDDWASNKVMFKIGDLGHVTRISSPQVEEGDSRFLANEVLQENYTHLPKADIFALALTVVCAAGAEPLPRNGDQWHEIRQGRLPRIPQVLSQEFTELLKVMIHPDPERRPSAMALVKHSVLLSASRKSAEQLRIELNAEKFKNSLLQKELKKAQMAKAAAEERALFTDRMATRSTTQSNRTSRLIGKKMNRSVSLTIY

SMILES	Ki
O=c1c2cnc(Nc3ccc4c(c3)CC(NCCF)C4)nc2n2ccnc2n1-c1c(Cl)cccc1Cl (stereo not shown) [Example 296, 6-(2,6-dichlorophenyl)-2-({2-[(2-fluoroethyl)amino]-2,3-dihydro-1H-inden-5-yl}amino)imidazo[1,2-a]pyrimido[5,4-e]pyrimidin-5(6H)-one]	< 10 nM
CCCNC1Cc2ccc(Nc3ncc4c(=O)n(-c5c(Cl)cccc5Cl)c5nccn5c4n3)cc2C1 (stereo not shown) [Example 297, 6-(2,6-dichlorophenyl)-2-{[2-(propylamino)-2,3-dihydro-1H-inden-5-yl]amino}imidazo[1,2-a]pyrimido[5,4-e]pyrimidin-5(6H)-one]	< 10 nM
CC(=O)N1CC2(CCN(c3ccc(Nc4ncc5c(=O)n(-c6c(Cl)cccc6Cl)c6nccn6c5n4)cc3)CC2)C1 [Example 298, 2-{[4-(2-acetyl-2,7-diazaspiro[3.5]non-7-yl)phenyl]amino}-6-(2,6-dichlorophenyl)imidazo[1,2-a]pyrimido[5,4-e]pyrimidin-5(6H)-one]	< 10 nM
CS(=O)(=O)N1CC2(CCN(c3ccc(Nc4ncc5c(=O)n(-c6c(Cl)cccc6Cl)c6nccn6c5n4)cc3)CC2)C1 [Example 299, 6-(2,6-dichlorophenyl)-2-({4-[2-(methylsulfonyl)-2,7-diazaspiro[3.5]non-7-yl]phenyl}amino)imidazo[1,2-a]pyrimido[5,4-e]pyrimidin-5(6H)-one]	< 10 nM
CNC(=O)N1Cc2cc(Nc3ncc4c(=O)n(-c5c(F)cccc5Cl)c5nccn5c4n3)ccc2C2(CC2)C1 [Example 300, 7′-{[6-(2-chloro-6-fluorophenyl)-5-oxo-5,6-dihydroimidazo[1,2-a]pyrimido[5,4-e]pyrimidin-2-yl]amino}-N-methyl-1′H-spiro[cyclopropane-1,4′-isoquinoline]-2′(3′H)-carboxamide]	< 10 nM
CC(C)NC(=O)N1Cc2cc(Nc3ncc4c(=O)n(-c5c(F)cccc5Cl)c5nccn5c4n3)ccc2C2(CC2)C1 [Example 301, 7′-{[6-(2-chloro-6-fluorophenyl)-5-oxo-5,6-dihydroimidazo[1,2-a]pyrimido[5,4-e]pyrimidin-2-yl]amino}-N-(propan-2-yl)-1′H-spiro[cyclopropane-1,4′-isoquinoline]-2′(3′H)-carboxamide]	< 10 nM
CC1(C)CN(CCF)Cc2cc(Nc3ncc4c(=O)n(-c5c(Cl)cccc5Cl)c5nccn5c4n3)ccc21 [Example 302, 6-(2,6-dichlorophenyl)-2-{[2-(2-fluoroethyl)-4,4-dimethyl-1,2,3,4-tetrahydroisoquinolin-7-yl]amino}imidazo[1,2-a]pyrimido[5,4-e]pyrimidin-5(6H)-one]	< 10 nM
CS(=O)(=O)N1CC2(CN(c3ccc(Nc4ncc5c(=O)n(-c6c(Cl)cccc6Cl)c6nccn6c5n4)cc3)C2)C1 [Example 303, 6-(2,6-dichlorophenyl)-2-({4-[6-(methylsulfonyl)-2,6-diazaspiro[3.3]hept-2-yl]phenyl}amino)imidazo[1,2-a]pyrimido[5,4-e]pyrimidin-5(6H)-one]	< 10 nM
O=c1c2cnc(Nc3ccc(N4CC5(CNC5)C4)cc3)nc2n2ccnc2n1-c1c(Cl)cccc1Cl [Example 304, 2-{[4-(2,6-diazaspiro[3.3]hept-2-yl)phenyl]amino}-6-(2,6-dichlorophenyl)imidazo[1,2-a]pyrimido[5,4-e]pyrimidin-5(6H)-one]	< 10 nM
O=c1c2cnc(Nc3ccc4c(c3)CC(N3CCCC3)C4)nc2n2ccnc2n1-c1c(Cl)cccc1Cl (stereo not shown) [Example 305, 6-(2,6-dichlorophenyl)-2-{[2-(pyrrolidin-1-yl)-2,3-dihydro-1H-inden-5-yl]amino}imidazo[1,2-a]pyrimido[5,4-e]pyrimidin-5(6H)-one]	< 10 nM
O=c1c2cnc(Nc3ccc4c(c3)CC(N3CC[C@H](F)C3)C4)nc2n2ccnc2n1-c1c(Cl)cccc1Cl (stereo partly drawn) [Example 306, 6-(2,6-dichlorophenyl)-2-({2-[(3S)-3-fluoropyrrolidin-1-yl]-2,3-dihydro-1H-inden-5-yl}amino)imidazo[1,2-a]pyrimido[5,4-e]pyrimidin-5(6H)-one]	< 10 nM
CC1(C)CNCc2cc(Nc3ncc4c(=O)n(-c5c(Cl)cccc5Cl)c5nccn5c4n3)ccc21 [Example 307, 6-(2,6-dichlorophenyl)-2-[(4,4-dimethyl-1,2,3,4-tetrahydroisoquinolin-7-yl)amino]imidazo[1,2-a]pyrimido[5,4-e]pyrimidin-5(6H)-one]	< 10 nM
O=c1c2cnc(Nc3ccc(NC4CCNCC4)cc3)nc2n2ccnc2n1-c1c(Cl)cccc1Cl [Example 308, 6-(2,6-dichlorophenyl)-2-{[4-(piperidin-4-ylamino)phenyl]amino}imidazo[1,2-a]pyrimido[5,4-e]pyrimidin-5(6H)-one]	< 10 nM
CN1CCC(c2ccc(Nc3ncc4c(=O)n(-c5c(F)cccc5Cl)c5nccn5c4n3)cc2)CC1 [Example 309, 6-(2-chloro-6-fluorophenyl)-2-{[4-(1-methylpiperidin-4-yl)phenyl]amino}imidazo[1,2-a]pyrimido[5,4-e]pyrimidin-5(6H)-one]	< 10 nM
CC(=O)N1Cc2cc(Nc3ncc4c(=O)n(-c5c(F)cccc5Cl)c5nccn5c4n3)ccc2C(C)(C)C1 [Example 310, 2-[(2-acetyl-4,4-dimethyl-1,2,3,4-tetrahydroisoquinolin-7-yl)amino]-6-(2-chloro-6-fluorophenyl)imidazo[1,2-a]pyrimido[5,4-e]pyrimidin-5(6H)-one]	< 10 nM
CC1(C)CN(C(=O)C2CC2)Cc2cc(Nc3ncc4c(=O)n(-c5c(F)cccc5Cl)c5nccn5c4n3)ccc21 [Example 311, 6-(2-chloro-6-fluorophenyl)-2-{[2-(cyclopropylcarbonyl)-4,4-dimethyl-1,2,3,4-tetrahydroisoquinolin-7-yl]amino}imidazo[1,2-a]pyrimido[5,4-e]pyrimidin-5(6H)-one]	< 10 nM
CC1(C)CN(S(C)(=O)=O)Cc2cc(Nc3ncc4c(=O)n(-c5c(F)cccc5Cl)c5nccn5c4n3)ccc21 [Example 312, 6-(2-chloro-6-fluorophenyl)-2-{[4,4-dimethyl-2-(methylsulfonyl)-1,2,3,4-tetrahydroisoquinolin-7-yl]amino}imidazo[1,2-a]pyrimido[5,4-e]pyrimidin-5(6H)-one]	< 10 nM
O=c1c2cnc(Nc3ccc(N4CC5(CCNC5)C4)cc3)nc2n2ccnc2n1-c1c(Cl)cccc1Cl [Example 313, 2-{[4-(2,6-diazaspiro[3.4]oct-2-yl)phenyl]amino}-6-(2,6-dichlorophenyl)imidazo[1,2-a]pyrimido[5,4-e]pyrimidin-5(6H)-one]	< 10 nM
O=c1c2cnc(Nc3ccc(N4CC5(CCNCC5)C4)cc3)nc2n2ccnc2n1-c1c(Cl)cccc1Cl [Example 314, 2-{[4-(2,7-diazaspiro[3.5]non-2-yl)phenyl]amino}-6-(2,6-dichlorophenyl)imidazo[1,2-a]pyrimido[5,4-e]pyrimidin-5(6H)-one]	< 10 nM
CN(C)[C@H]1CCN(c2ccc(Nc3ncc4c(=O)n(-c5c(Cl)cccc5Cl)c5nccn5c4n3)cc2)C1 [Example 315, 6-(2,6-dichlorophenyl)-2-({4-[(3S)-3-(dimethylamino)pyrrolidin-1-yl]phenyl}amino)imidazo[1,2-a]pyrimido[5,4-e]pyrimidin-5(6H)-one]	< 10 nM
CC1(C)CN(C(=O)CO)Cc2cc(Nc3ncc4c(=O)n(-c5c(F)cccc5Cl)c5nccn5c4n3)ccc21 [Example 316, 6-(2-chloro-6-fluorophenyl)-2-{[2-(hydroxyacetyl)-4,4-dimethyl-1,2,3,4-tetrahydroisoquinolin-7-yl]amino}imidazo[1,2-a]pyrimido[5,4-e]pyrimidin-5(6H)-one]	< 10 nM
CC1(C)CN(S(N)(=O)=O)Cc2cc(Nc3ncc4c(=O)n(-c5c(F)cccc5Cl)c5nccn5c4n3)ccc21 [Example 317, 7-{[6-(2-chloro-6-fluorophenyl)-5-oxo-5,6-dihydroimidazo[1,2-a]pyrimido[5,4-e]pyrimidin-2-yl]amino}-4,4-dimethyl-3,4-dihydroisoquinoline-2(1H)-sulfonamide]	< 10 nM
CC(=O)N1Cc2cc(Nc3ncc4c(=O)n(-c5c(Cl)cccc5Cl)c5nccn5c4n3)ccc2C(C)(C)C1 [Example 318, 2-[(2-acetyl-4,4-dimethyl-1,2,3,4-tetrahydroisoquinolin-7-yl)amino]-6-(2,6-dichlorophenyl)imidazo[1,2-a]pyrimido[5,4-e]pyrimidin-5(6H)-one]	< 10 nM
CC1(C)CN(S(C)(=O)=O)Cc2cc(Nc3ncc4c(=O)n(-c5c(Cl)cccc5Cl)c5nccn5c4n3)ccc21 [Example 319, 6-(2,6-dichlorophenyl)-2-{[4,4-dimethyl-2-(methylsulfonyl)-1,2,3,4-tetrahydroisoquinolin-7-yl]amino}imidazo[1,2-a]pyrimido[5,4-e]pyrimidin-5(6H)-one]	< 10 nM
CCS(=O)(=O)N1Cc2cc(Nc3ncc4c(=O)n(-c5c(Cl)cccc5Cl)c5nccn5c4n3)ccc2C(C)(C)C1 [Example 320, 6-(2,6-dichlorophenyl)-2-{[2-(ethylsulfonyl)-4,4-dimethyl-1,2,3,4-tetrahydroisoquinolin-7-yl]amino}imidazo[1,2-a]pyrimido[5,4-e]pyrimidin-5(6H)-one]	< 10 nM
CC(=O)N1CCC(Nc2ccc(Nc3ncc4c(=O)n(-c5c(Cl)cccc5Cl)c5nccn5c4n3)cc2)CC1 [Example 321, 2-({4-[(1-acetylpiperidin-4-yl)amino]phenyl}amino)-6-(2,6-dichlorophenyl)imidazo[1,2-a]pyrimido[5,4-e]pyrimidin-5(6H)-one]	< 10 nM
CS(=O)(=O)N1CCC(Nc2ccc(Nc3ncc4c(=O)n(-c5c(Cl)cccc5Cl)c5nccn5c4n3)cc2)CC1 [Example 322, 6-(2,6-dichlorophenyl)-2-[(4-{[1-(methylsulfonyl)piperidin-4-yl]amino}phenyl)amino]imidazo[1,2-a]pyrimido[5,4-e]pyrimidin-5(6H)-one]	< 10 nM
CN1CCC2(CC1)CCN(c1ccc(Nc3ncc4c(=O)n(-c5c(Cl)cccc5Cl)c5nccn5c4n3)cc1)CC2 [Example 323, 6-(2,6-dichlorophenyl)-2-{[4-(9-methyl-3,9-diazaspiro[5.5]undec-3-yl)phenyl]amino}imidazo[1,2-a]pyrimido[5,4-e]pyrimidin-5(6H)-one]	< 10 nM
